# Data published in patent publication US11259522B2, “Control of resistant pests” (priority 2017, dated 2022).
# Values joined by “and” are separate entries in the source; they are usually repeats but may differ in a detail not shown here. Equal entries are not always repeated. Where two headings read alike, the source gives them in different places.
# Columns and labels:
# [1] = system: Halotydeus destructor resistant population (synthetic pyrethroid resistance); experiment: Coated plastic vial bioassay, redlegged earth mite, resistant population; type: in vivo; conditions: 24 hours exposure; for LC50: Halotydeus destructor, 24 h
# Method: (§1) The test compositions included 0.1% Tween 20 non-ionic surfactant to aid the spread of insecticides when coating plastic vials. This concentration of Tween 20 has been previously shown to have no toxic effect on H. destructor. For each insecticide concentration tested, 3, 10, 30, 100, 300, 1000, 3000 and 10000 mg a.i./L (ppm), approximately 10 mL of solution was poured into a 15 mL plastic vial and swirled to ensure a complete coating, with excess liquid removed. Eight vials were coated per concentration and were left to dry overnight. Control vials were treated in the same way but with water used in place of test composition.
# (§2) Eight susceptible H. destructor mites were then placed into each vial along with a leaf of common vetch (Vicia sativa). The leaf was added to provide food and increase humidity. Vials were then sealed with a lid and placed at 18° C. After 4, 6, 8 and 24 hours of exposure, the mites were scored as alive (moving freely), incapacitated (inhibited movement), or dead (no movement over a 5 second period).
# The resistant population of H. destructor was collected from a lucerne paddock in the Upper South-East district of South Australia, where resistance to synthetic pyrethroids was confirmed in late 2016.
# (§3) The data produced in the assays were assessed for concentrations that caused 50, 90 and 99% mortality (lethal concentration, LC), together with 95% confidence intervals (CIs) and were estimated from observations of mortality after 24 hours exposure using a binomial logistic regression (Robertson & Preisler, 1992, Pesticide Bioassays with Arthropods. CRC: Boca Raton; Venables & Ripley, 2002, Modern Applied Statistics with S. Springer: New York). Population differences were tested by comparing the change in model deviance with and without the population factor (different regression intercepts for each population). Differences in regression slopes between populations were tested by comparing the change in model deviance with and without the population×dose interaction term. The resistance ratio of the insecticide-resistant population was estimated as the ratio of its LC50 to that of the susceptible population. All analyses were performed using R 3.3. (R Core Team 2017, R: A language and environment for statistical computing. R Foundation for Statistical Computing, Vienna, Austria. http://www.R-project.org).
# [2] = system: Halotydeus destructor susceptible population; experiment: Coated plastic vial bioassay, redlegged earth mite, susceptible population; type: in vivo; conditions: for LC50: Halotydeus destructor, read-out: LC50 (mg a.i./L)
# Method: The efficacy of flavesone against H. destructor was assessed using the glass vial technique developed by Hoffmann et al. (1997, Exp. Appl. Acarol., 21:151-162), adapted for plastic vials. A susceptible population of mites was collected from capeweed (Arctotheca calendula) at a Victorian site (37° 40′33″S, 145° 07′ 45″E) that had no known history of insecticide application. Following collection, samples were stored in small plastic containers with leaf material and paper towel to absorb excess moisture. Containers were kept at 4° C. prior to testing.
# as §1
# as §2, with “period). […]” for “period).”
# as §3
# [3] = system: Rhyzopertha dominica strain QRD1440 (resistant to OP protectants and pyrethroids); experiment: Grain protectant bioassay on treated wheat, resistant lesser grain borer; conditions: Example 5, QRD1440, replicates A, B, C; for F1 Progeny count No. dead/total: further 6 weeks
# [4] = system: Rhipicephalus microplus larvae, susceptible non-resistant field strain (NRFS); experiment: Larval packet test (LPT), cattle tick larvae, susceptible strain; type: in vivo; conditions: for LC50 (ppm) / LC99 (ppm): NRFS, 24 hours, Probit analysis; for mortality at 1250 ppm: 1,250 ppm
# Method: The larval packet test (LPT) is a modification of that first described by Stone and Haydock (1962, Bull. Entomol. Res., 563-578, http://dx.doi.org/10.1017/5000748530004832X) for evaluation of field resistance in cattle tick (Rhipicephalus microplus) larvae.
# The first LPT assay was conducted to identify the potential range of flavesone acaricidal activity against larvae of a susceptible non-resistant field strain (NRFS) of R. microplus as a reference strain using a wide range of concentrations (1 in 10 in series).
# The test compound, flavesone, 6-isobutyryl-2,2,4,4-tetramethylcyclohexane-1,3,5-trione, 96.7%, was used. As its volatility/evaporative properties were unknown, the LPT method was modified to incorporate the use of suitably-sized polyethylene plastic sheets to envelop the larval packets, minimizing exposure of the test active to the atmosphere.
# In addition, the use of the solvent trichloroethylene (TCE) was removed to avoid the time required for evaporation in the preparation of test papers. The test solutions were prepared in olive oil only at the diluent and the papers immediately enveloped in the plastic sheets and sealed with bulldog clips to minimize evaporation.
# A stock solution with a concentration of 100,000 ppm (10%) flavesone was prepared in olive oil as the diluent (1.035 mL flavesone (96.7%) to 8.965 mL olive oil) and then further diluted 1 in 10 in series to also give 10,000 ppm, 1,000 ppm, 100 ppm, 10 ppm and 1 ppm concentration. The negative control was olive oil only. No positive control was included in this experiment. Due to the viscosity of the olive oil, all solutions were prepared using reverse pipetting technique.
# (§4) Filter papers (75 mm×85 mm Whatman® No. 541), with grid patterns, were impregnated on ½ of the paper with 225 μL of each solution using a micro-pipette and immediately folded in half, enveloped in polyethylene plastic and sealed with 3 bulldog clips. The impregnated papers were kept at room temperature on aluminium trays for a minimum of 60 minutes to allow for dispersal across the grid pattern of the paper prior to aliquoting of larvae. The packets were prepared in duplicate for each concentration, including the negative control.
# An 8 dram vial containing approximately 20,000 hatched 7-21 day old NRFS larvae (about 1 g eggs) was opened and set up on a moated tray with a small amount of detergenated water, about 15 to 30 minute before use. Only larvae that migrated to the top of the vial were used in the assay.
# (§5) Aliquots of approximately 100 larvae were placed into each packet using plastic disposable forceps and the packets resealed and incubated and 27° C. and 85% relative humidity (RH).
# (§6) After 24 hours, the larval packets were opened and the numbers of dead and live larvae were counted under a magnification lamp. Percentage mortality was calculated and, where applicable, corrected using Abbott's Formula (Abbott, 1925, J. Economic Entomology, 18:256-257): […]
# (§7) LC50 and LC99 values were determined by Probit mortality vs log concentration analysis. Probit values were derived from “Transformation of Percentages to Probit's Tables” published by Fisher R. A. and Yates F. (1938).
# (§8) The LPT Assay of Example 1 was repeated using a narrow range of concentrations, 1 in 2 series, of flavesone to determine LC50 and LC99 values against the susceptible NRFS and the multi-resistant Tiaro reference strain.
# The stock solution of flavesone (100,000 ppm) was diluted 1 in 10 with olive oil (1 mL to 9 mL diluent) to give 10,000 ppm, which was then further diluted 1 in 2 in series (5 mL to 5 mL diluent) to give 5,000 ppm, 2,500 ppm, 1,250 ppm, 625 ppm, 312.5 ppm and 156.25 ppm concentrations. […]
# [5] = system: Rhipicephalus microplus larvae, multi-resistant Tiaro reference strain; experiment: Larval packet test (LPT), cattle tick larvae, multi-resistant strain; type: in vivo; conditions: Example 2, 24 hours
# Method: as §4, §5, §6, §7, §8
# The Tiaro strain of R. microplus comprises of about 30% fluazuron, 60.6% cypermethrin (SP), 57.6% flumethrin (SP), 16.2% amitraz (amidine), 11.3% DDT, 9.3% chlorpyrifos (OP) and 2.4% dieldrin resistance [2014 acaricide resistance profiling].
# The stock solution of flavesone (100,000 ppm) was diluted 1 in 10 with olive oil (1 mL to 9 mL diluent) to give 10,000 ppm, which was then further diluted 1 in 2 in series (5 mL to 5 mL diluent) to give 5,000 ppm, 2,500 ppm, 1,250 ppm, 625 ppm, 312.5 ppm and 156.25 ppm concentrations.
# For the preparation of the positive control, cypermethrin, a stock solution of a concentration of 10,000 ppm was prepared in 2:1 trichloroethylene (TCE)/olive oil as the solvent ([…] cypermethrin, 94.8% purity, to 10 mL solvent) and then further diluted 1 in 2 in series (5 mL to 5 mL solvent) to also give 5,000 ppm, 2,500 ppm, 1,250 ppm, 625 ppm, 312.5 ppm and 156.25 ppm.
# The flavesone papers were prepared as in Example 1.
# The cypermethrin papers were impregnated with 670 μL of each solution using a micro-pipette and hung on a rack in a fume-hood to allow papers to dry (evaporation of TCE) for a minimum of 60 minutes. The papers were then folded in half and sealed with three bulldog clips, placed on aluminium trays prior to aliquoting the larvae. All packets were prepared in duplicate.
# A dose-response relationship was determined at 24 hours contact exposure.
# Concentrations of 1,250 ppm, 625 ppm and 312.5 ppm flavesone concentrations prepared for Example 3 were used on the same day of preparation. Duplicate papers were prepared for both the NRFS and Tiaro strains (including negative controls) as described in Example 2.
# Mortality was assessed at 48 hours and LC50 and LC99 values were determined by Probit mortality vs log concentration analysis.
# [6] = system: Aedes aegypti PRS Puerto Rican strain (synthetic pyrethroid resistant) L3 larvae; experiment: Mosquito larval dose response assay, PRS strain; conditions: read-out: Lethal Concentration (LC50) PRS Strain
# [7] = system: Aedes aegypti Liverpool strain (insecticide susceptible, LVP) L3 larvae; experiment: Mosquito larval dose response assay, LVP strain; conditions: read-out: Lethal Concentration (LC50) LVP Strain
# [8] = Susceptible population, 24 hours exposure
# [9] = Rhipicephalus microplus, 24 h, Example 2
# [10] = Rhipicephalus microplus, 24 h, Example 3
compound,measurement,setting,value
"Cc1c(COC(=O)[C@@H]2[C@H](/C=C(\Cl)C(F)(F)F)C2(C)C)cccc1-c1ccccc1 (racemic) [Bifenthrin, bifenthrin]",resistance ratio (LC50 of resistant population to that of susceptible population),[1],"about 3,500 times"
same,LC50,"[1]; Resistant population, read-out: LC50 (mg a.i./L)",144 mg/L
same,LC90 (mg a.i./L),[1]; Resistant population,5.4 × 10^5 mg a.i./L
same,LC99 (mg a.i./L),[1]; Resistant population,4.3 × 10^9 mg a.i./L
same,LC50,[2]; [8],0.04 mg/L
same,LC90 (mg a.i./L),[2]; [8],2.66 mg a.i./L
same,LC99 (mg a.i./L),[2]; [8],233.10 mg a.i./L
"CCOP(=S)(OCC)Oc1nc(Cl)c(Cl)cc1Cl [Chlorpyrifos, chlorpyrifos, reference compound]",resistance ratio (LC50 of resistant population to that of susceptible population),[1],6.5 times
same,LC50,"[1]; read-out: LC50 (mg a.i./L), Resistant population",1.37 mg/L
same,LC90 (mg a.i./L),[1]; Resistant population,7.76 mg a.i./L
same,LC99 (mg a.i./L),[1]; Resistant population,51.56 mg a.i./L
same,LC50,[2]; 24 h,0.21 mg/L
same,LC90 (mg a.i./L),[2]; [8],0.76 mg a.i./L
same,LC99 (mg a.i./L),[2]; [8],3.18 mg a.i./L
same,F1 Progeny count No. dead/total,[3]; 5 ppm on wheat,2/470 and 3/172 and 3/355
same,14 Day adult mortality No. dead (total),[3]; 5 ppm on wheat,0/50 (2×) and 1/50
same,F1 Progeny count No. dead/total,[3]; 10 ppm on wheat,1/350 and 0/317 and 2/232
same,14 Day adult mortality No. dead (total),[3]; 10 ppm on wheat,0/50
"CC1(C)C(C=C(Cl)Cl)C1C(=O)OC(C#N)c1cccc(Oc2ccccc2)c1 (centres unmarked) [Cypermethrin, cypermethrin, reference compound]",LC50 (ppm),[4]; Example 2,128 ppm
same,LC99 (ppm),[4]; Example 2,540 ppm
same,LC50 (ppm),[4]; Example 3,112 ppm
same,LC99 (ppm),[4]; Example 3,317 ppm
same,mortality at 2.5 ppm,"[4]; Rhipicephalus microplus, 24 h, Example 2, 2.500 ppm",100%
same,mortality at 156.25 ppm,[4]; [9],67.3%
same,mortality at 312.5 ppm,[4]; [9],89%
same,mortality at 625 ppm,[4]; [9],99.6%
same,mortality at 1250 ppm,[4]; [9],100%
same,mortality at 5000 ppm,"[4]; Rhipicephalus microplus, 24 h, Example 2, 5,000 ppm",100%
same,mortality at 10000 ppm,"[4]; Rhipicephalus microplus, 24 h, Example 2, 10,000 ppm",100%
same,mortality at 39.0625 ppm,"[4]; Rhipicephalus microplus, 24 h, Example 3, 39.0625 ppm",0%
same,mortality at 78.125 ppm,"[4]; Rhipicephalus microplus, 24 h, Example 3, 78.125 ppm",20.6%
same,mortality at 156.25 ppm,[4]; [10],79.6%
same,mortality at 312.5 ppm,[4]; [10],99.2%
same,mortality at 625 ppm,[4]; [10],100%
same,mortality at 1250 ppm,[4]; [10],100%
same,LC50 (ppm),"[5]; Tiaro, Probit analysis",3082 ppm
same,LC99 (ppm),"[5]; Tiaro, Probit analysis",">10,000 ppm"
same,mortality at 2.5 ppm,"[5]; Rhipicephalus microplus, 2.500 ppm",59.7%
same,mortality at 156.25 ppm,"[5]; Rhipicephalus microplus, 156.25 ppm",0.56%
same,mortality at 312.5 ppm,"[5]; Rhipicephalus microplus, 312.5 ppm",20.4%
same,mortality at 625 ppm,"[5]; Rhipicephalus microplus, 625 ppm",21.9%
same,mortality at 1250 ppm,"[5]; Rhipicephalus microplus, 1,250 ppm",20.9%
same,mortality at 5000 ppm,"[5]; Rhipicephalus microplus, 5,000 ppm",62.2%
same,mortality at 10000 ppm,"[5]; Rhipicephalus microplus, 10,000 ppm",66.8%
"CCOC(=O)CC(SP(=S)(OC)OC)C(=O)OCC (centres unmarked) [Malathion, malathion]",LC50,[6]; 24 h,0.291 mg/L
same,LC50,[6]; 48 h,0.177 mg/L
same,LC50,[6]; 72 h,0.127 mg/L
same,LC50,[7]; 24 h,0.11 mg/L
same,LC50,[7]; 48 h,0.0389 mg/L
same,LC50,[7]; 72 h,0.0298 mg/L
